From PubChem BioAssay AID248 (DTP/NCI, 2004)
Where “and” joins values, the source holds several entries; their conditions need not be identical. Equal entries are not always repeated. Toxic doses and inconclusive results are not listed. Cut-off read from the data, not from the text of the source: active = T/C of 150% or more; inactive = T/C below 125%.

Test system: L1210 leukemia ip in BDF1 mice, survival T/C
Experiment: NCI In Vivo Anticancer Drug Screen. Data for tumor model L1210 Leukemia (intraperitoneal) in B6D2F1 (BDF1) mice
Conditions: higher = longer survival
In short: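 Value reflects the ratio of survival in compound-treated mice to survival in vehicle-treated controls, with both groups carrying the same transplanted tumor.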

Measured: T/C

CC[C@](O)(C(=O)O)c1cc2n(c(=O)c1CO)Cc1cc3ccccc3nc1-2
inactive: endpoint: mean survival time, dose: 0.12 mg/kg/injection, schedule: Q#A X Z (ip), vehicle: saline 106 % of control | endpoint: mean survival time, dose: 0.18 mg/kg/injection, schedule: Q01DX009 (ip), vehicle: saline 105 % of control and 108 % of control | endpoint: mean survival time, dose: 0.25 mg/kg/injection, schedule: Q01DX006 (iv), vehicle: saline 107 % of control | endpoint: mean survival time, dose: 0.25 mg/kg/injection, schedule: Q01DX009 (ip), vehicle: saline 98 % of control | endpoint: mean survival time, dose: 0.25 mg/kg/injection, schedule: Q01DX010 (ip), vehicle: saline 117 % of control | endpoint: mean survival time, dose: 0.25 mg/kg/injection, schedule: Q01DX Z (im), vehicle: saline 107 % of control | endpoint: mean survival time, dose: 0.25 mg/kg/injection, schedule: Q01DX Z (sc), vehicle: saline 107 % of control | endpoint: mean survival time, dose: 0.25 mg/kg/injection, schedule: Q## X Z (ip), vehicle: saline 97 % of control | endpoint: mean survival time, dose: 0.25 mg/kg/injection, schedule: Q#A X Z (ip), vehicle: saline 114 % of control | endpoint: mean survival time, dose: 0.35 mg/kg/injection, schedule: Q01DX009 (ip), vehicle: saline 106 % of control and 113 % of control | endpoint: mean survival time, dose: 0.5 mg/kg/injection, schedule: Q01DX006 (iv), vehicle: saline 103 % of control | endpoint: mean survival time, dose: 0.5 mg/kg/injection, schedule: Q01DX009 (ip), vehicle: saline 104 % of control and 112 % of control | endpoint: mean survival time, dose: 0.5 mg/kg/injection, schedule: Q01DX009 (oral), vehicle: water 97 % of control | endpoint: mean survival time, dose: 0.5 mg/kg/injection, schedule: Q01DX Z (im), vehicle: saline 108 % of control | endpoint: mean survival time, dose: 0.5 mg/kg/injection, schedule: Q01DX Z (ip), vehicle: saline 122 % of control | endpoint: mean survival time, dose: 0.5 mg/kg/injection, schedule: Q01DX Z (oral), vehicle: saline 105 % of control | endpoint: mean survival time, dose: 0.5 mg/kg/injection, schedule: Q01DX Z (sc), vehicle: saline 107 % of control | endpoint: mean survival time, dose: 0.5 mg/kg/injection, schedule: Q## X Z (ip), vehicle: saline 103 % of control | endpoint: mean survival time, dose: 0.7 mg/kg/injection, schedule: Q01DX009 (ip), vehicle: saline 106 % of control and 108 % of control | endpoint: mean survival time, dose: 0.75 mg/kg/injection, schedule: Q03DX Z (ip), vehicle: saline 101 % of control | endpoint: mean survival time, dose: 1.0 mg/kg/injection, schedule: Q01DX006 (iv), vehicle: saline 111 % of control | endpoint: mean survival time, dose: 1.0 mg/kg/injection, schedule: Q01DX009 (ip), vehicle: saline 111 % of control and 112 % of control | endpoint: mean survival time, dose: 1.0 mg/kg/injection, schedule: Q01DX009 (oral), vehicle: water 113 % of control | endpoint: mean survival time, dose: 1.0 mg/kg/injection, schedule: Q01DX Z (im), vehicle: saline 113 % of control | endpoint: mean survival time, dose: 1.0 mg/kg/injection, schedule: Q01DX Z (oral), vehicle: saline 117 % of control | endpoint: mean survival time, dose: 1.0 mg/kg/injection, schedule: Q01DX Z (sc), vehicle: saline 113 % of control | endpoint: mean survival time, dose: 1.0 mg/kg/injection, schedule: Q## X Z (ip), vehicle: saline 114 % of control | endpoint: mean survival time, dose: 1.3 mg/kg/injection, schedule: Q## X008 (ip), vehicle: saline 102 % of control | endpoint: mean survival time, dose: 1.5 mg/kg/injection, schedule: Q03DX Z (ip), vehicle: saline 109 % of control | endpoint: mean survival time, dose: 2.0 mg/kg/injection, schedule: Q01DX001 (ip), vehicle: saline 106 % of control and 113 % of control (2×) | endpoint: mean survival time, dose: 2.0 mg/kg/injection, schedule: Q01DX006 (iv), vehicle: saline 114 % of control and 122 % of control | endpoint: mean survival time, dose: 2.0 mg/kg/injection, schedule: Q01DX010 (ip), vehicle: saline 110 % of control | endpoint: mean survival time, dose: 2.0 mg/kg/injection, schedule: Q01DX010 (oral), vehicle: saline 97 % of control | endpoint: mean survival time, dose: 2.0 mg/kg/injection, schedule: Q01DX Z (im), vehicle: saline 116 % of control | endpoint: mean survival time, dose: 2.0 mg/kg/injection, schedule: Q01DX Z (sc), vehicle: saline 114 % of control and 120 % of control | endpoint: mean survival time, dose: 2.0 mg/kg/injection, schedule: Q07DX Z (ip), vehicle: saline 109 % of control | endpoint: mean survival time, dose: 2.5 mg/kg/injection, schedule: Q01DX001 (oral), vehicle: water 111 % of control | endpoint: mean survival time, dose: 2.5 mg/kg/injection, schedule: Q04DX002 (ip), vehicle: saline 100 % of control and 108 % of control | endpoint: mean survival time, dose: 2.5 mg/kg/injection, schedule: Q04DX003 (ip), vehicle: saline 110 % of control | endpoint: mean survival time, dose: 2.5 mg/kg/injection, schedule: Q## X003 (ip), vehicle: saline 105 % of control and 109 % of control | endpoint: mean survival time, dose: 2.5 mg/kg/injection, schedule: Q## X003 (oral), vehicle: saline 107 % of control | endpoint: mean survival time, dose: 2.5 mg/kg/injection, schedule: Q## X003 (oral), vehicle: water 107 % of control | endpoint: mean survival time, dose: 2.5 mg/kg/injection, schedule: Q## X008 (ip), vehicle: saline 98 % of control | endpoint: mean survival time, dose: 2.6 mg/kg/injection, schedule: Q## X024 (ip), vehicle: saline 101 % of control | endpoint: mean survival time, dose: 2.6 mg/kg/injection, schedule: Q## X024 (oral), vehicle: water 100 % of control | endpoint: mean survival time, dose: 3.0 mg/kg/injection, schedule: Q01DX Z (sc), vehicle: saline 120 % of control | endpoint: mean survival time, dose: 3.0 mg/kg/injection, schedule: Q03DX Z (ip), vehicle: saline 118 % of control | endpoint: mean survival time, dose: 4.0 mg/kg/injection, schedule: Q01DX001 (ip), vehicle: saline 105 % of control and 110 % of control and 116 % of control | endpoint: mean survival time, dose: 4.0 mg/kg/injection, schedule: Q01DX009 (oral), vehicle: water 120 % of control | endpoint: mean survival time, dose: 4.0 mg/kg/injection, schedule: Q01DX Z (ip), vehicle: saline 97 % of control and 116 % of control | endpoint: mean survival time, dose: 4.0 mg/kg/injection, schedule: Q01DX Z (oral), vehicle: saline 101 % of control | endpoint: mean survival time, dose: 4.5 mg/kg/injection, schedule: Q01DX006 (iv), vehicle: saline 122 % of control | endpoint: mean survival time, dose: 4.5 mg/kg/injection, schedule: Q01DX Z (im), vehicle: saline 93 % of control | endpoint: mean survival time, dose: 5.0 mg/kg/injection, schedule: Q01DX001 (oral), vehicle: water 115 % of control | endpoint: mean survival time, dose: 5.0 mg/kg/injection, schedule: Q04DX002 (ip), vehicle: saline 110 % of control and 113 % of control | endpoint: mean survival time, dose: 5.0 mg/kg/injection, schedule: Q04DX003 (ip), vehicle: saline 116 % of control | endpoint: mean survival time, dose: 5.0 mg/kg/injection, schedule: Q04DX003 (ip), vehicle: water 118 % of control and 120 % of control | endpoint: mean survival time, dose: 5.0 mg/kg/injection, schedule: Q## X003 (ip), vehicle: saline 114 % of control | endpoint: mean survival time, dose: 5.0 mg/kg/injection, schedule: Q## X003 (oral), vehicle: water 121 % of control | endpoint: mean survival time, dose: 5.0 mg/kg/injection, schedule: Q## X008 (ip), vehicle: saline 105 % of control | endpoint: mean survival time, dose: 5.0 mg/kg/injection, schedule: Q## X024 (ip), vehicle: saline 120 % of control | endpoint: mean survival time, dose: 6.0 mg/kg/injection, schedule: Q01DX001 (ip), vehicle: saline 110 % of control | endpoint: mean survival time, dose: 6.5 mg/kg/injection, schedule: Q01DX006 (iv), vehicle: saline 112 % of control | endpoint: mean survival time, dose: 6.5 mg/kg/injection, schedule: Q01DX Z (sc), vehicle: saline 105 % of control | endpoint: mean survival time, dose: 8.0 mg/kg/injection, schedule: Q01DX001 (ip), vehicle: saline 105 % of control and 115 % of control | endpoint: mean survival time, dose: 8.0 mg/kg/injection, schedule: Q01DX009 (ip), vehicle: saline 120 % of control | endpoint: mean survival time, dose: 10.0 mg/kg/injection, schedule: Q01DX001 (ip), vehicle: saline 112 % of control | endpoint: mean survival time, dose: 10.0 mg/kg/injection, schedule: Q## X008 (ip), vehicle: saline 117 % of control | endpoint: mean survival time, dose: 10.0 mg/kg/injection, schedule: Q## X008 (oral), vehicle: water 121 % of control | endpoint: mean survival time, dose: 19.0 mg/kg/injection, schedule: Q03DX Z (ip), vehicle: saline 121 % of control | endpoint: mean survival time, dose: 50.0 mg/kg/injection, schedule: Q04DX003 (ip), vehicle: saline 105 % of control | endpoint: mean survival time, dose: 80.0 mg/kg/injection, schedule: Q04DX003 (ip), vehicle: saline 114 % of control | endpoint: mean survival time, dose: 160.0 mg/kg/injection, schedule: Q## X003 (ip), vehicle: saline 110 % of control | endpoint: mean survival time, dose: 125.0 micrograms/kg/injection, schedule: Q01DX Z (ip), vehicle: saline 111 % of control | endpoint: mean survival time, dose: 250.0 micrograms/kg/injection, schedule: Q01DX Z (ip), vehicle: saline 114 % of control | endpoint: median survival time, dose: 5.0 mg/kg/injection, schedule: Q04DX003 (ip), vehicle: saline 122 % of control | endpoint: median survival time, dose: 50.0 mg/kg/injection, schedule: Q01DX001 (ip), vehicle: saline 110 % of control and 119 % of control | endpoint: median survival time, dose: 83.3 mg/kg/injection, schedule: Q04DX003 (ip), vehicle: saline 110 % of control and 121 % of control | endpoint: median survival time, dose: 100.0 mg/kg/injection, schedule: Q04DX003 (ip), vehicle: saline 94 % of control and 116 % of control | endpoint: median survival time, dose: 148.0 mg/kg/injection, schedule: Q01DX001 (ip), vehicle: saline 115 % of control

OC12CCCC3CCCC(CCC1)C32 (stereo unspecified)
inactive: endpoint: mean survival time, dose: 100.0 mg/kg/injection, schedule: Q01DX009 (ip), vehicle: saline sonified 108 % of control | endpoint: mean survival time, dose: 100.0 mg/kg/injection, schedule: Q04DX003 (ip), vehicle: Klucel (hydroxypropylcellulose) (HPC) 106 % of control | endpoint: mean survival time, dose: 200.0 mg/kg/injection, schedule: Q01DX009 (ip), vehicle: saline sonified 111 % of control | endpoint: mean survival time, dose: 200.0 mg/kg/injection, schedule: Q04DX003 (ip), vehicle: Klucel (hydroxypropylcellulose) (HPC) 96 % of control | endpoint: mean survival time, dose: 400.0 mg/kg/injection, schedule: Q01DX009 (ip), vehicle: saline sonified 92 % of control | endpoint: mean survival time, dose: 400.0 mg/kg/injection, schedule: Q04DX003 (ip), vehicle: Klucel (hydroxypropylcellulose) (HPC) 104 % of control
